Consider 9 compounds from patent US7973075B2, “Kainate receptor-selective epimeric analogs of dysiherbaine” (priority 2007, dated 2011).

Several values for one entry are separate records, joined by “and”; a condition that tells them apart may be missing. Equal values may be shown once. Read-outs that look alike come from different tables or passages of the source.

One assay has as its target T1, GluR5-2a (Rattus norvegicus, UniProt P22756, DEL402-416).
T1 construct: expressed in transfected cells; host or cells: HEK-293-T/17
Nature of the assay: Radioligand binding ([3H]kainate displacement), HEK-293-T/17 membranes, Example 2. Particulars: Cheng-Prusoff. Here is the method:
(§1) Radioligand binding. Membrane preparations from HEK-293-T/17 cells were prepared and used in radioligand binding assays as described previously (Sanders et al., 2005). Unlabeled analogs were used to displace [3H]kainate (10-20 nM, PerkinElmer Life and Analytical Sciences, Boston, Mass.) or [3H]AMPA (20 nM, PerkinElmer Life and Analytical Sciences, Boston, Mass.) from KARs and AMPARs, respectively. Nonspecific binding was determined in the presence of 1 mM glutamate. After 1 hour incubation at 4° C., samples were harvested by rapid filtration onto Whatman GF/C membranes. Upon addition of scintillation fluid, membranes were incubated for 1 hour at room temperature. A Beckman LS5000TD scintillation counter was used for quantification (Beckman Coulter Inc., Fullerton, Calif.). Data were plotted and fit with a one-site competition curve with fixed minima and maxima using Prism 4 (GraphPad Software, Inc). Ki's were calculated with the Cheng-Prusoff equation using the determined IC5o values and the radioligand Kd. Data were plotted and fit with a one-site competition curve with fixed minima (0) and maxima (100) (Prism4, GraphPad Software, Inc.). Correlation analysis was performed with these binding data and the seizure activity of each analog, represented as ED50 values.
(§2) The pharmacological profiles of the Group I analogs, 8-deoxy-neoDH and 9-deoxyneoDH, were analyzed initially in radioligand binding experiments with expressed recombinant AMPA and kainate receptor subunits. Displacement of [3H]kainate from cell membranes with a range of analog concentrations yielded IC50 values that were then used to calculate Ki values for each analog/receptor combination. Both Group 1 analogs retained high affinity only for GluR5-2a KAR subunits (FIG. 8A). […] Weak binding to other KAR and AMPAR subunits was observed, with all Ki values estimated at >10 μM (n=3-5; Table 3, FIG. 8A).
(§3) For comparison, the Ki values for neoDH and MSVIII-19 are included in the table (Sanders et al., 2005). Removal of the C9 hydroxyl eliminated binding to all receptor subunits (Ki values estimated at >100 μM), with the exception of GluR5-2a KARs.

The target of a further assay is T2, GluR6a (Rattus norvegicus, UniProt P42260).
T2 construct: expressed in transfected cells; host or cells: HEK-293-T/17
T2 sequence (P42260 32-908): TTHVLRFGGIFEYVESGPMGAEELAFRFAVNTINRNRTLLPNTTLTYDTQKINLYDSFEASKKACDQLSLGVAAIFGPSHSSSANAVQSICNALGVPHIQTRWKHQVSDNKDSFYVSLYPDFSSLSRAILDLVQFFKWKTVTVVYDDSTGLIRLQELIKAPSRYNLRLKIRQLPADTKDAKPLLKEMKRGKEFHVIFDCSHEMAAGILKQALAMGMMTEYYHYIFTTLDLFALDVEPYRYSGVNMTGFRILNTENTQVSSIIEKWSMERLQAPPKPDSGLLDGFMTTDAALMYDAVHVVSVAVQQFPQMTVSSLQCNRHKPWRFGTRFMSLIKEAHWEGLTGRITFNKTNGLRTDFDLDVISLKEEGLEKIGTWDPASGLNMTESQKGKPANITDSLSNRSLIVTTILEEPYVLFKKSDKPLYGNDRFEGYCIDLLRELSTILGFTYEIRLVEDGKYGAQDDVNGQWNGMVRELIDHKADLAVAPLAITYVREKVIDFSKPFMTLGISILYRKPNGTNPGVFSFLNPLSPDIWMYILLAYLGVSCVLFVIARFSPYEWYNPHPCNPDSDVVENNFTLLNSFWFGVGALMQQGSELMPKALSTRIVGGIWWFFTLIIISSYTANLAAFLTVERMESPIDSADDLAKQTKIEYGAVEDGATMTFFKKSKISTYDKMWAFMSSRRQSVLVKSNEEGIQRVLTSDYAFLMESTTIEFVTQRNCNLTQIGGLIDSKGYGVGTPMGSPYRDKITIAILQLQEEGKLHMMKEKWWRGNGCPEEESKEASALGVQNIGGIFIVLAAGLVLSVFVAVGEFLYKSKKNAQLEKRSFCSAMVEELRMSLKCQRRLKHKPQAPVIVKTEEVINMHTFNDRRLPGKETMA
The description is as above. Conditions: for Ki: [3H]kainate displacement, Cheng-Prusoff. Here is the method:
as §1, §2, §3

In another assay the target is T3, GluR7a (Rattus norvegicus, UniProt P42264).
T3 construct: expressed in transfected cells; host or cells: HEK-293-T/17
T3 sequence (P42264 32-919): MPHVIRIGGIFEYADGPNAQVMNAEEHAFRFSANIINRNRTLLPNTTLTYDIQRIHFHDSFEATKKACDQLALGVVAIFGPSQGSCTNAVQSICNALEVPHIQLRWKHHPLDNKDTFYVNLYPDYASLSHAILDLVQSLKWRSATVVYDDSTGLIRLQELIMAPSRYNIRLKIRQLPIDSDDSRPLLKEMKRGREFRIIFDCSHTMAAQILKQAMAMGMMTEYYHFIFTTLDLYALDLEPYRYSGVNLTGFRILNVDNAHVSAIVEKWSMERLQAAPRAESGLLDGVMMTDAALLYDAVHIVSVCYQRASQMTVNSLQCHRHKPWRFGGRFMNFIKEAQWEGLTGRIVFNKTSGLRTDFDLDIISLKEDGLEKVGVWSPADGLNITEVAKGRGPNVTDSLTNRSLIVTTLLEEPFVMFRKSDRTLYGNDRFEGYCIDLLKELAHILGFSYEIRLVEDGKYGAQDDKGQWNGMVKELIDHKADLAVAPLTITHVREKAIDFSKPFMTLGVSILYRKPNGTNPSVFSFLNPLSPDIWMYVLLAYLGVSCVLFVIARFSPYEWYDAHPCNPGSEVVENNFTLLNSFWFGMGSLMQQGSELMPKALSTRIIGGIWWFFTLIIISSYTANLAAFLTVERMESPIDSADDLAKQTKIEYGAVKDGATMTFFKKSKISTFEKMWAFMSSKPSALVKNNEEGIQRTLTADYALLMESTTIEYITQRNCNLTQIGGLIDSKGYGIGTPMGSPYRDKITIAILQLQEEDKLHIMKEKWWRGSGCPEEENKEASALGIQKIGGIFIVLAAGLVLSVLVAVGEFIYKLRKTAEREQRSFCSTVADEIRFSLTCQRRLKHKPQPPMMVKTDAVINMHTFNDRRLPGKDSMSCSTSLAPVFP
The assay is described as above. Here is the method:
as §1, §2, §3

The target of the next assay is T4, KA2 (Rattus norvegicus, UniProt Q63273).
T4 construct: expressed in transfected cells; host or cells: HEK-293-T/17
T4 sequence (Q63273 15-979): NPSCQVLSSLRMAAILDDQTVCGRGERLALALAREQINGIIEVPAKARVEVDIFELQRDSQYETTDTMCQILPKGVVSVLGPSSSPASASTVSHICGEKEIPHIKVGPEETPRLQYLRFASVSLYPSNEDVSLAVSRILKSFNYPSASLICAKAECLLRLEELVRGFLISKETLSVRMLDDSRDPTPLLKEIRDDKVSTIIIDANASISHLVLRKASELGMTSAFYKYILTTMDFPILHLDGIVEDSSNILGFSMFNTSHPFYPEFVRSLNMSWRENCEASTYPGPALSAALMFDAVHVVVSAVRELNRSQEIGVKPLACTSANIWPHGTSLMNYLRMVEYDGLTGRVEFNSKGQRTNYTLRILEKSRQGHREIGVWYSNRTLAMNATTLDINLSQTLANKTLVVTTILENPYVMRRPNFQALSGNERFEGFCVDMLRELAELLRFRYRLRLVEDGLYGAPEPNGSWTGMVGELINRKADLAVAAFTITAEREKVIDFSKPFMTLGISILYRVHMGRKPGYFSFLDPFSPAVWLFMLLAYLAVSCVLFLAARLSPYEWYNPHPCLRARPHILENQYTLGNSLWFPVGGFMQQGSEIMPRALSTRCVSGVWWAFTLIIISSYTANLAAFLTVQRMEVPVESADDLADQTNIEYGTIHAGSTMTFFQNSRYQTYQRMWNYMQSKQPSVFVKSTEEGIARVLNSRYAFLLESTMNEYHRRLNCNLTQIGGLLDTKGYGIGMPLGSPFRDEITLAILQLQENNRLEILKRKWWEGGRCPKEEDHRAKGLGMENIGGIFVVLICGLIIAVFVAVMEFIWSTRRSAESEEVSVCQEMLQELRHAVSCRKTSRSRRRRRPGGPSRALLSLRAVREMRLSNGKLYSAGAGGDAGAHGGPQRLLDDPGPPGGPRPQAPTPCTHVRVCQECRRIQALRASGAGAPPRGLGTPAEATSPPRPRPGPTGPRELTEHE
The assay is described as above. Conditions: Cheng-Prusoff. Here is the method: as §1, §2, §3

The next assay deals with T5, GluR1(i) (Rattus norvegicus, UniProt P19490).
T5 construct: expressed in transfected cells; host or cells: HEK-293-T/17
T5 sequence (P19490 19-907 isoform P19490-2 limits assumed): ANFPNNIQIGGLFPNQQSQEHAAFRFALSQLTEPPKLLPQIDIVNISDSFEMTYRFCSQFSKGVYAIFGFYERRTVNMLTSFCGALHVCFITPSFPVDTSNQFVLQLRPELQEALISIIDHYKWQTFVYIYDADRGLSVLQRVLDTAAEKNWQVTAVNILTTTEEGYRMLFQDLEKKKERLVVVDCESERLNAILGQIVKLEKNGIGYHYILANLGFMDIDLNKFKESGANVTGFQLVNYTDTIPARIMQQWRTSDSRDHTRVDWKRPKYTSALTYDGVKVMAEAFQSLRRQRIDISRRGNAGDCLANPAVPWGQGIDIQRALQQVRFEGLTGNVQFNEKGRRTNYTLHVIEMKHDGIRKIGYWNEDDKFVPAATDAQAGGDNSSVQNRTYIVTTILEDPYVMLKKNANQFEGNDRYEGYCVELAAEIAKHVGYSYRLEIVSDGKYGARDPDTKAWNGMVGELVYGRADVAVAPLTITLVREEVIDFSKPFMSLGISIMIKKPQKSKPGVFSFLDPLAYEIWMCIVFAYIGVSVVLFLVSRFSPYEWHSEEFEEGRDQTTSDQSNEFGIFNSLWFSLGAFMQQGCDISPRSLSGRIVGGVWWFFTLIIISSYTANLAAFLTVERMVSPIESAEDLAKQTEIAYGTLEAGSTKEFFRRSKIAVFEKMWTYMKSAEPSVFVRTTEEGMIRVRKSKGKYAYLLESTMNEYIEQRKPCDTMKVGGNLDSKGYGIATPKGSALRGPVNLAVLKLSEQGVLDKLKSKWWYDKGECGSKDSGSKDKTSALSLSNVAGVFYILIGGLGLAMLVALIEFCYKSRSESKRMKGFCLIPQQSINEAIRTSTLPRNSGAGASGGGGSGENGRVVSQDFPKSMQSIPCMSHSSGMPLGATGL
Nature of the assay: Radioligand binding ([3H]AMPA displacement), HEK-293-T/17 membranes, Example 2. Particulars: Cheng-Prusoff. Here is the method:
as §1, §2, §3

The next assay addresses T6, GluR2(i) (Rattus norvegicus, UniProt P19491).
T6 construct: expressed in transfected cells; host or cells: HEK-293-T/17
The description is as above. Particulars: Cheng-Prusoff. Here is the method: as §1, §2, §3

The subject of another assay is mice. Conditions: Shoji et al., 2006, cited from earlier work; for ED50 seizure activity: i.c.v. injection, mice; for convulsant behavior, from the literature: i.c.v., Sasaki et al., 1999, Sakai et al., 2001a.
[1] abbreviates: [3H]kainate displacement, Cheng-Prusoff, read-out: Ki GluR7a.
[2] abbreviates: [3H]kainate displacement, read-out: Ki KA2.

Usually Ki stands for the equilibrium dissociation constant of an inhibitor or competing ligand from its target.

T6 sequence (P19491 22-883 isoform P19491-2 limits assumed): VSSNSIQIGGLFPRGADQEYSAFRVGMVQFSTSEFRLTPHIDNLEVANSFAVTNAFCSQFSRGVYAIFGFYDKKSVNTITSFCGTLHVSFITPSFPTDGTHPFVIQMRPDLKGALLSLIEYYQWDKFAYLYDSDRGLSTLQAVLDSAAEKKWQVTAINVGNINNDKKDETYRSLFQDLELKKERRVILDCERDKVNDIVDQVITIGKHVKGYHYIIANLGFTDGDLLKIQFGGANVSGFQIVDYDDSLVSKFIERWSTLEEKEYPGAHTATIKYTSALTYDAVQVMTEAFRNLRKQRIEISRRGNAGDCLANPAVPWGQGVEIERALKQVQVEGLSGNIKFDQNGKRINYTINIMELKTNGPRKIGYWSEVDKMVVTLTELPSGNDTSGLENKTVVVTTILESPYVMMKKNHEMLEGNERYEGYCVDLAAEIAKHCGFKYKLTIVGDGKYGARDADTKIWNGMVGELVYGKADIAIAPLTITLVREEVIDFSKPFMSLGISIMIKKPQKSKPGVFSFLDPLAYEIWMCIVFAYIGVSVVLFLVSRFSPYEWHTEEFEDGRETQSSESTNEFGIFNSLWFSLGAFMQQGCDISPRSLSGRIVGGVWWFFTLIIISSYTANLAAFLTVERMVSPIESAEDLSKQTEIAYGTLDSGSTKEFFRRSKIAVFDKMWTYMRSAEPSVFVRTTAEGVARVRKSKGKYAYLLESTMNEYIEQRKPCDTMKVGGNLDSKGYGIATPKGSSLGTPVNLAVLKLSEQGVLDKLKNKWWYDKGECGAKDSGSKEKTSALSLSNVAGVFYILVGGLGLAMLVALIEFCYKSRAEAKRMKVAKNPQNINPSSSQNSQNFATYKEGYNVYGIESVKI
T1 sequence (P22756 with tags, fused parts or gaps isoform P22756-2 limits assumed, stated change not applied): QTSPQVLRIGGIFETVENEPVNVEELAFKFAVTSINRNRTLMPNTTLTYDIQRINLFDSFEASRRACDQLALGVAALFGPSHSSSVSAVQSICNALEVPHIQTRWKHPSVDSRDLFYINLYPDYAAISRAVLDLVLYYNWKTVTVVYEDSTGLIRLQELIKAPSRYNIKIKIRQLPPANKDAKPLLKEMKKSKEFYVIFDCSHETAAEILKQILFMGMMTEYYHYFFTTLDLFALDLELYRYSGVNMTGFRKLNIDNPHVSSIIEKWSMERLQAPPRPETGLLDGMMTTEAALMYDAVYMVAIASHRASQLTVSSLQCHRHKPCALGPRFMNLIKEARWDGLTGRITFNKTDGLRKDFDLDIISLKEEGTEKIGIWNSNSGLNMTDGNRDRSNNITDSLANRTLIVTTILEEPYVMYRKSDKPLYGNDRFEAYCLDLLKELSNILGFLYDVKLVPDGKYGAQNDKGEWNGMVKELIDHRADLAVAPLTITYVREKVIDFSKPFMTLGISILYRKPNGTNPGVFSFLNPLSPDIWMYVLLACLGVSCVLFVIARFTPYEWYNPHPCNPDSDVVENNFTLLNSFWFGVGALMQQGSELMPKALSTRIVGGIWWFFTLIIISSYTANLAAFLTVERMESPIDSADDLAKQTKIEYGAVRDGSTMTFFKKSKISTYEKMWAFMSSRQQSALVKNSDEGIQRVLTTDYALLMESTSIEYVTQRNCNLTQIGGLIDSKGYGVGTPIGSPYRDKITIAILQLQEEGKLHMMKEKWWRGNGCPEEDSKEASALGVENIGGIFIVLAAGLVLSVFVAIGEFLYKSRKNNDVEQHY

`N[C@@H](C[C@@]1(C(=O)O)CC2OCC(O)C(O)C2O1)C(=O)O` (single isomer, unassigned) [2,4-epi-neoDH, 2,4-epi-neodysiherbaine]: the Ki was 2.4 µM at GluR5-2a (read-out: Ki GluR5-2a); 7.7 µM at GluR6a (read-out: Ki GluR6a); over 100 µM at GluR7a (setting [1]); over 100 µM on KA2 (setting [2]); over 100 µM on GluR1(i) (read-out: Ki GluR1(i)); over 100 µM at GluR2(i) (read-out: Ki GluR2(i)). For the same compound, on GluR7a, the “binding to GluR7 receptor” value is reported as “Neither 2,4-epineoDH nor 4-epi-neoDH bound the GluR7 receptor appreciably”. Moreover, the ED50 seizure activity in the assay with mice and in the assay with mice (listed as 2,4epi-neoDH) was 11.4 nmol/mouse in each case. Moreover, the “convulsant behavior, from the literature” value with mice was “weakly convulsant”.

On to `N[C@@H](C[C@@]1(C(=O)O)CC2OCC(O)C(O)C2O1)C(=O)O` (single isomer, unassigned) [4-epi-neoDH, 4-epi-neodysiherbaine], for which the Ki at GluR5-2a (read-out: Ki GluR5-2a) is 0.559 µM and ~0.56 µM; on GluR6a (read-out: Ki GluR6a), 6.7 µM; on GluR7a (setting [1]) it was over 100 µM; at KA2 (setting [2]), about 30 µM; at GluR1(i) (read-out: Ki GluR1(i)) it was over 30 µM; at GluR2(i) (read-out: Ki GluR2(i)) it was over 30 µM. In addition, the “binding to GluR7 receptor” value on GluR7a is on record as “Neither 2,4-epineoDH nor 4-epi-neoDH bound the GluR7 receptor appreciably”. Moreover, the ED50 seizure activity in the assay with mice is listed as 1.7 nmol/mouse. Moreover, the “convulsant behavior, from the literature” value in the assay with mice was “weakly convulsant”.

In the case of `NC(CC1(C(=O)O)CC2OCC(O)C(O)C2O1)C(=O)O` (stereo not drawn) [8,9-epi-neoDH, 8,9-epi-neodysiherbaine], the Ki on GluR5-2a (read-out: Ki GluR5-2a) is 48 µM; at GluR6a (read-out: Ki GluR6a), over 100 µM; on GluR7a (setting [1]), over 100 µM; at KA2 (setting [2]), over 100 µM; at GluR1(i) (read-out: Ki GluR1(i)), over 100 µM; at GluR2(i) (read-out: Ki GluR2(i)), over 100 µM.

Regarding `N[C@@H](C[C@]1(C(=O)O)C[C@H]2OC[C@@H](O)C[C@H]2O1)C(=O)O` [8-deoxy-neoDH], the Ki is 0.0015 µM at GluR5-2a (Ki GluR5-2a); 48 µM on GluR6a (Ki GluR6a); 2.9 µM on GluR7a; 20 µM on KA2 (Ki KA2, [3H]kainate displacement); over 100 µM at GluR1(i) (Ki GluR1(i)); over 100 µM at GluR2(i) (Ki GluR2(i)). The ED50 seizure activity with mice is reported as 238 pmol/mouse.

For the compound `NC(CC1(C(=O)O)CC2OCC(O)C(O)C2O1)C(=O)O` (stereo not drawn) [8-epi-neoDH, 8-epi-neodysiherbaine], the Ki on GluR5-2a (read-out: Ki GluR5-2a) is 0.034 µM; on GluR6a (read-out: Ki GluR6a), 22 µM; on GluR7a (setting [1]), 1.7 µM; at KA2 (setting [2]) it was over 100 µM; at GluR1(i) (read-out: Ki GluR1(i)), 16 µM; on GluR2(i) (read-out: Ki GluR2(i)), 23 µM. The ED50 seizure activity with mice is listed as 283 pmol/mouse.

On to `NC(CC1(C(=O)O)CC2OCC(F)C(O)C2O1)C(=O)O` (stereo not drawn) [9-F-8-epi-neoDH], for which the Ki on GluR5-2a (read-out: Ki GluR5-2a) is 0.028 µM; on GluR6a (read-out: Ki GluR6a) it was over 100 µM; at GluR7a (setting [1]), over 100 µM; at KA2 (setting [2]), over 100 µM; at GluR1(i) (read-out: Ki GluR1(i)), over 100 µM; at GluR2(i) (read-out: Ki GluR2(i)), over 100 µM. Moreover, the “binding affinity for GluR6a subunit” value on GluR6a is “do not exhibit measurable affinity”. Further, the ED50 seizure activity in the assay on mice is recorded as 374 pmol/mouse.

`N[C@@H](C[C@]1(C(=O)O)C[C@H]2OCC[C@@H](O)[C@H]2O1)C(=O)O` [9-deoxy-neoDH]: the Ki on GluR5-2a (read-out: Ki GluR5-2a) was 0.169 µM; at GluR6a (read-out: Ki GluR6a), over 100 µM; at GluR7a (setting [1]), over 100 µM; on KA2 (setting [2]), over 100 µM; on GluR1(i) (read-out: Ki GluR1(i)), over 100 µM; at GluR2(i) (read-out: Ki GluR2(i)) it was over 100 µM. Moreover, the “binding affinity for GluR6a subunit” value at GluR6a is “do not exhibit measurable affinity”. The ED50 seizure activity in the assay with mice is on record as 7.1 nmol/mouse.

As for `NC(CC1(C(=O)O)CC2OCC(O)C(O)C2O1)C(=O)O` (stereo not drawn) [9-epi-neoDH, 9-epi-neodysiherbaine], the Ki at GluR5-2a (read-out: Ki GluR5-2a) is 0.292 µM; on GluR6a (read-out: Ki GluR6a) it was over 100 µM; at GluR7a (setting [1]), over 100 µM; at KA2 (setting [2]) it was over 100 µM; at GluR1(i) (read-out: Ki GluR1(i)) it was over 100 µM; on GluR2(i) (read-out: Ki GluR2(i)), over 100 µM. For the same compound, the “binding affinity for GluR6a subunit” value on GluR6a was “do not exhibit measurable affinity”. Also, in the assay with mice, the ED50 seizure activity is 8.6 nmol/mouse.

On to `N[C@@H](C[C@]1(C(=O)O)C[C@H]2OCCC[C@H]2O1)C(=O)O` [MSVIII-19, 8,9-dideoxy-neoDH], for which the “binding affinity for GluR6a subunit” value on GluR6a is recorded as “do not exhibit measurable affinity”. In the assay with mice, the ED50 seizure activity is on record as 6.3 nmol/mouse and the “convulsant behavior, from the literature” value is “sub-seizure stereotyped behavior followed by unresponsiveness”.
